{"source": "patent US20080254152A1", "about": "“Methods for Reducing the Effects of Stress on Skin Condition” (priority 2003, published 2008)", "system": "MMP-1 expression in human adult-derived dermal fibroblast cells", "experiment": "Active MMP-1 in adult-derived human dermal fibroblasts after chronic dexamethasone and PMA", "format": "cell-based", "settings": "for Suppression of MMP-1 synthesis vs control, untreated cells: chronic dexamethasone then 1 μM PMA, adult fibroblasts", "method": "In this study, to understand better the effect of chronic stress on dermal matrix remodelling in the skin, we have therefore measured changes in markers of dermal matrix degradation (MMP-1) and dermal matrix synthesis (Procollagen I) in chronically glucocorticoid-treated primary human dermal fibroblasts, following acute stress with PMA. The experimental approach is similar to that described in example 1 except that the cells tested are dermal fibroblasts and cells are assayed for expression of procollagen-1, MMP-1 and MMP-9 expression.\nPrimary human dermal fibroblast cells were cultured and passaged in DMEM (Gibco) supplemented with 10% FBS (foetal bovine serum). Cells were routinely plated out in 6-well tissue culture dishes, at a seeding density of ˜5000 cells/cm^2 in 2 ml complete medium/well for 24 hours, and incubated at 37° C. in 5% CO2. Media was removed and cells grown in DMEM & 1% FBS, 24 hours prior to treatments.\nPre-treatment and test solutions were prepared in DMEM containing low serum (1% FBS). […] Following this, the cells were oxidatively stressed for 24 hours with 1 μM PMA (Sigma P8139).\nMMP-1 and MMP-9 protein in each cell supernatant was estimated using the Human active MMP-1 and MMP-9 Fluorokine enzyme kit (R&D Systems F1M00 and F9M00, respectively), according to the manufacturer's instructions.\nSix MMP-1 and MMP-9 standards were prepared in calibrator diluent at concentrations ranging from 0.39 to 12.5 ng/ml and 0.25 to 16 ng/ml, respectively. 100 μl of assay diluent and 150 μl of tissue culture supernatant or standard was added to duplicate wells. The plate was incubated at room temperature for 3 hours on a horizontal orbital plate shaker before being washed four times with wash buffer. 200 μl of APMA was added to each well and the plate incubated at 37° C. for 2 hours in a humidified environment and protected from the light. The plate was washed as before. Each well received 200 μl of substrate solution and the plate incubated at 37° C. for 17-20 hours in a humidified environment and protected from the light. The relative fluorescence unit (RFU) of each well was determined using a fluorescence plate set with 1×20 mS integration time, plate speed ˜6; excitation wavelength set to 320 nm and emission wavelength set to 405 nm.\nA standard curve was plotted of mean RFU versus MMP-1 and MMP-9 concentration (respectively), and the line of best fit calculated by regression analysis. The unknown concentration of either active MMP-1 or MMP-9 protein in all of the samples was estimated from this.", "data": [{"smiles": "C[C@@H]1C[C@H]2[C@@H]3CCC4=CC(=O)C=C[C@]4(C)[C@@]3(F)[C@@H](O)C[C@]2(C)[C@@]1(O)C(=O)CO", "note": "[Dexamethasone]", "values": [{"measurement": "Level of active MMP-1", "setting": "GC-treated adult fibroblasts", "result": "~25", "unit": "ng/mL"}, {"measurement": "Suppression of MMP-1 synthesis vs control, untreated cells", "setting": "T6", "result": "~85", "unit": "%"}, {"measurement": "Suppression of MMP-1 synthesis vs control, untreated cells", "setting": "T24", "result": 10, "unit": "%"}, {"measurement": "Suppression of MMP-1 synthesis vs control, untreated cells", "setting": "T48", "result": 80, "unit": "%"}]}]}
